Measurements reported in patent US8586542B2, “Small molecule apoptosis promoters” (Joyant Pharmaceuticals, Inc., priority 2006, dated 2013).
Like-named read-outs stand apart in the source and are kept apart here.

Experiments:
Caspase3 in Hela S100 = test: In-vitro caspase-3 activation assay in Hela S100 extract; format: biochemical; conditions: 100 nM compound, Hela S100, 1 mM dATP; slope versus control (compound 1 = Caspase std.)
Procedure: Caspase3 in most cell extracts can be activated by the addition of 1 mM dATP through the mitochondria caspase pathway. […] Taking advantage of this feature, we use 100 nM of synthetic Smac mimetic compound to test its ability to eliminate IAPB in the Hela S100 and fully induce Caspase3 activity. The In Vitro Caspase3 assay is carried out at 30° C., incubating 100 nM compounds with 30 ug of Hela S100, 1 mM dATP, 10 uM Caspase3 fluorogenic substrate (Caspase3 Substrate II, Fluorogenic, #235425 from Calbiochem). The readout is caspase-3 activity represented by relative fluorogenic unit, which is recorded kinetically. The slope in linear region of the curve for each compound is calculated.
The ratio of each synthetic compound's slope versus the slope of control reflects in vitro caspase-3 activation ability of compounds.

HCC461 cells = test: Cell viability assay in HCC461 cells (WST-1); format: cell-based; conditions: read-out: HCC461 cell
Procedure: HCC461 cells plated in 96 well plates at 5×10^4/ml cell density are treated with 50× synthetic Smac mimetic compounds (final concentration range between 30 uM and 0.001 uM). After 48 hrs incubation at 37° C. and 5% CO2, viability of the cells are measured using Cell Proliferation Reagent WST-1 assay kit (Roche Cat #11 644 807 001).
The tetrazolium salts are cleaved to formazan by cellular enzymes. An expansion in the number of viable cells results in an increase in the overall activity of mitochondrial dehydrogenases in the samples. This augmentation in the enzyme activity leads to an increase in the amount of formazan dye formed, which directly correlates to the number of metabolically active cells in the culture. Quantification of the formazan dye produced by metabolically active cells by using a microplate (ELISA) reader at 420-480 nm.

[1] = target: T1, truncated XIAP containing only BIR1, BIR2, and BIR3 domains (Homo sapiens, UniProt P98170); test: Fluorescent polarization assay (Bir binding); conditions: competition with 2 nM fluorescein labeled AVPI peptide, room temperature, 1 hour
T1 construct: truncated XIAP containing only BIR1, BIR2, and BIR3 domains
Procedure: Increasing concentrations of Smac compounds are incubated with 2 nM of labeled peptide (fluorescein labeled 10 mer peptide with AVPI 4 amino acids at its N terminus-Alexa Fluor 488) and truncated XIAP containing only BIR1, BIR2, and BIR3 domains at room temperature for 1 hour. Fluorescence reading, indicative of the bound portion of the labeled peptide, is measured in milipolarization units (mP). The more compound added, less fluorescein labeled peptide bind to the protein due to the competitive binding and less fluorescence signal is released.
Based on this principle, we obtain the Ki value that evaluates compound's binding affinity.

[2] = HCC461, 48 hrs incubation, WST-1 viability

T1 sequence (P98170 1-356 limits assumed): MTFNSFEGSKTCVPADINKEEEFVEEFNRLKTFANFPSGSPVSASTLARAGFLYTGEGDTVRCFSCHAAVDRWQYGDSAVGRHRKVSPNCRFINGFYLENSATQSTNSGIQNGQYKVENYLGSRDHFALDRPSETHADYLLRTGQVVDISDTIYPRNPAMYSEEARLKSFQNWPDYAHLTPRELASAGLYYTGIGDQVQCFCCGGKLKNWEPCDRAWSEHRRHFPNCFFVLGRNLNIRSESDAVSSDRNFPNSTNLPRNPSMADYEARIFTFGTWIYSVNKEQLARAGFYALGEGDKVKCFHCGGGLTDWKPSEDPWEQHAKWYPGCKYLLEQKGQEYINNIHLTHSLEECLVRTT

| Caspase % (Caspase3 in Hela S100) [%] | Bir binding [1] [µM] | IC50 (HCC461 cells; [2]) [nM] | SMILES | IC50 (HCC461 cells; HCC461, 48 h) [nM] |
| --- | --- | --- | --- | --- |
| 94 | 0.172 | 12 | CN[C@@H](C)C(=O)N[C@H](C(=O)N1CCC[C@H]1C(=O)N[C@@H]1CCCc2ccccc21)[C@@H](C)OCC#CC=CCO[C@H](C)[C@H](NC(=O)[C@H](C)NC)C(=O)N1CCC[C@H]1C(=O)N[C@@H]1CCCc2ccccc21.Cl.Cl [Compound 11] |  |
| 105 | 0.188 | 70 | CN[C@@H](C)C(=O)N[C@@H](CC#CC#CCO[C@H](C)[C@H](NC(=O)[C@H](C)NC)C(=O)N1CCCC1C(=O)N[C@@H]1CCCc2ccccc21)C(=O)N1CCCC1C(=O)N[C@@H]1CCCc2ccccc21.Cl.Cl (some centres unmarked) [Compound 13] |  |
| 104 | 0.158 | 620 | CN[C@@H](C)C(=O)N[C@H](C(=O)N1CCCC1C(=O)N[C@@H]1CCCc2ccccc21)[C@@H](C)OCCCCCCO[C@H](C)[C@H](NC(=O)[C@H](C)NC)C(=O)N1CCC[C@H]1C(=O)N[C@@H]1CCCc2ccccc21.Cl.Cl (some centres unmarked) [Compound 14] |  |
| 87 | 0.638 | 80 | CCC[C@H](NC)C(=O)N[C@@H](CC#CC#CC[C@H](NC(=O)[C@H](C)NC)C(=O)N1CCC[C@H]1C(=O)N[C@@H]1CCCc2ccccc21)C(=O)N1CCC[C@H]1C(=O)N[C@@H]1CCCc2ccccc21.Cl.Cl [Compound 15] |  |
| 107 | 0.22 | 25 | CC[C@H](NC)C(=O)N[C@@H](CC#CC#CC[C@H](NC(=O)[C@H](C)NC)C(=O)N1CCC[C@H]1C(=O)N[C@@H]1CCCc2ccccc21)C(=O)N1CCC[C@H]1C(=O)N[C@@H]1CCCc2ccccc21.Cl.Cl [Compound 16] |  |
| 98 | 0.136 | 690 | CN[C@@H](C)C(=O)N[C@@H](Cc1cn(CCCn2cc(C[C@H](NC(=O)[C@H](C)NC)C(=O)N3CCC[C@H]3C(=O)N[C@@H]3CCCc4ccccc43)nn2)nn1)C(=O)N1CCC[C@H]1C(=O)N[C@@H]1CCCc2ccccc21.Cl.Cl [Compound 17] |  |
| 88 | 0.176 | 760 | CN[C@@H](C)C(=O)N[C@@H](Cc1nnn2c1-c1c(C[C@H](NC(=O)[C@H](C)NC)C(=O)N3CCC[C@H]3C(=O)N[C@@H]3CCCc4ccccc43)nnn1CCC2)C(=O)N1CCCC1C(=O)N[C@@H]1CCCc2ccccc21.Cl.Cl (some centres unmarked) [Compound 18] |  |
| 98 | 0.14 | 240 | CN[C@@H](C)C(=O)N[C@H](C(=O)N1CCC[C@H]1C(=O)N[C@@H]1CCCc2ccccc21)[C@@H](C)OCc1nnn2c1-c1c(CO[C@H](C)[C@H](NC(=O)[C@H](C)NC)C(=O)N3CCC[C@H]3C(=O)N[C@@H]3CCCc4ccccc43)nnn1CCC2.Cl.Cl [Compound 19] |  |
| 99 | 0.18 | 520 | CN[C@@H](C)C(=O)N[C@@H](Cc1cn(CCn2cc(C[C@H](NC(=O)[C@H](C)NC)C(=O)N3CCC[C@H]3C(=O)N[C@@H]3CCCc4ccccc43)nn2)nn1)C(=O)N1CCC[C@H]1C(=O)N[C@@H]1CCCc2ccccc21.Cl.Cl [Compound 20] |  |
| 70 | 1.13 | 2200 | CN[C@@H](C)C(=O)N[C@@H](Cc1nnn2c1-c1c(C[C@H](NC(=O)[C@H](C)NC)C(=O)N3CCC[C@H]3C(=O)N[C@@H]3CCCc4ccccc43)nnn1CC2)C(=O)N1CCCC1C(=O)N[C@@H]1CCCc2ccccc21.Cl.Cl (some centres unmarked) [Compound 21] |  |
| 106 | 0.13 | 810 | CN[C@@H](C)C(=O)N[C@H](C(=O)N1CCC[C@H]1C(=O)N[C@@H]1CCCc2ccccc21)[C@@H](C)OCc1cn(CCn2cc(CO[C@H](C)[C@H](NC(=O)[C@H](C)NC)C(=O)N3CCC[C@H]3C(=O)N[C@@H]3CCCc4ccccc43)nn2)nn1.Cl.Cl [Compound 22] |  |
| 109 | 0.13 | 490 | CN[C@@H](C)C(=O)N[C@H](C(=O)N1CCC[C@H]1C(=O)N[C@@H]1CCCc2ccccc21)[C@@H](C)OCc1nnn2c1-c1c(CO[C@H](C)[C@H](NC(=O)[C@H](C)NC)C(=O)N3CCC[C@H]3C(=O)N[C@@H]3CCCc4ccccc43)nnn1CC2.Cl.Cl [Compound 23] |  |
| 102 | 0.2 |  | CN[C@@H](C)C(=O)N[C@@H](CCCc1ccc([C@H](NC(=O)[C@H](C)NC)C(=O)N2CCC[C@H]2C(=O)N[C@@H]2CCCc3ccccc32)cc1)C(=O)N1CCC[C@H]1C(=O)N[C@@H]1CCCc2ccccc21.Cl.Cl [Compound 38] |  |

Further lines, the molecule ahead of its results:

| SMILES | Caspase % (Caspase3 in Hela S100) [%] | Bir binding [1] [µM] | IC50 (HCC461 cells; [2]) [nM] | IC50 (HCC461 cells; HCC461, 48 h) [nM] |
| --- | --- | --- | --- | --- |
| CN[C@@H](C)C(=O)N[C@@H](CC#CC#CC[C@H](NC(=O)[C@H](C)NC)C(=O)N1CCC[C@H]1C(=O)N[C@@H]1CCCc2ccccc21)C(=O)N1CCC[C@H]1C(=O)N[C@@H]1CCCc2ccccc21 [Compound 1] | 100 | 0.07 |  | 4 |
| CN[C@@H](C)C(=O)N[C@@H](CCCCCC[C@H](NC(=O)[C@H](C)NC)C(=O)N1CCC[C@H]1C(=O)N[C@@H]1CCCc2ccccc21)C(=O)N1CCC[C@H]1C(=O)N[C@@H]1CCCc2ccccc21 [Compound 2] | 105 | 0.15 |  | 10 |
| CNC(C)C(=O)N[C@@H](CC#CC#CC[C@H](NC(=O)[C@H](C)NC)C(=O)N1CCC[C@H]1C(=O)NC(c1ccccc1)c1ccccc1)C(=O)N1CCC[C@H]1C(=O)NC(c1ccccc1)c1ccccc1 (some centres unmarked) [Compound 3] | 48 | 0.12 | 26 |  |
| CNC(C)C(=O)N[C@@H](CCCCCC[C@H](NC(=O)[C@H](C)NC)C(=O)N1CCC[C@H]1C(=O)NC(c1ccccc1)c1ccccc1)C(=O)N1CCC[C@H]1C(=O)NC(c1ccccc1)c1ccccc1 (some centres unmarked) [Compound 4] | 55 | 0.11 | 25 |  |
| CNC(C)C(=O)N[C@@H](CCCCCC[C@H](NC(=O)[C@H](C)NC)C(=O)N1CCC[C@H]1C(=O)NCc1ccccc1)C(=O)N1CCC[C@H]1C(=O)NCc1ccccc1 (some centres unmarked) [Compound 6] | 82 | 0.2 | 2100 |  |
| CN[C@@H](C)C(=O)N[C@@H](CC#CC#CC[C@H](NC(=O)[C@H](C)NC)C(=O)N1CCC[C@H]1C(=O)NC(C)c1ccccc1)C(=O)N1CCC[C@H]1C(=O)NC(C)c1ccccc1 (some centres unmarked) [Compound 7] | 101 | 0.144 | 373 |  |
| CN[C@@H](C)C(=O)N[C@@H](CCCCCC[C@H](NC(=O)[C@H](C)NC)C(=O)N1CCC[C@H]1C(=O)NC(C)c1ccccc1)C(=O)N1CCC[C@H]1C(=O)NC(C)c1ccccc1 (some centres unmarked) [Compound 8] | 93 | 0.27 | 70 |  |
| CC[C@H](NC)C(=O)N[C@@H](CC#CC#CC[C@H](NC(=O)[C@H](CC)NC)C(=O)N1CCC[C@H]1C(=O)N[C@@H]1CCCc2ccccc21)C(=O)N1CCC[C@H]1C(=O)N[C@@H]1CCCc2ccccc21 [Compound 9] | 108 | 0.196 | 9 |  |
| CC[C@H](NC)C(=O)N[C@@H](CCCCCC[C@H](NC(=O)[C@H](CC)NC)C(=O)N1CCC[C@H]1C(=O)N[C@@H]1CCCc2ccccc21)C(=O)N1CCC[C@H]1C(=O)N[C@@H]1CCCc2ccccc21 [Compound 10] | 105 | 0.2 | 20 |  |
